Data from patent EP1614683B1, “Indazole compounds and pharmaceutical compositions for inhibiting protein kinases, and methods for their use” (priority 1999, dated 2001).
Like-named read-outs stand apart in the source and are kept apart here.

Key:
[1] = molecular target: unphosphorylated VEGF-R2Δ50 (Homo sapiens, UniProt P35968, DEL940-989/E990V); assay: biochemical; details: read-out: FLVK ** (% inhibition)
[2] = vehicle PEG400:H2O pH 2.3 30:70
[3] = in vivo; details: mouse, plasma, pH 2.3
[4] = test system: lung cancer cells (line MV522); assay: Cancer cell proliferation (MV522) assay; type: cell-based; details: MV522; Table 1; read-out: MV522 IC50
How it was run: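 MTT reduction read-out was taken 72 h after addition of test agents, with no prior serum starvation. Cells were plated beforehand at two thousand per well in RPMI1640 containing 10% FBS and 2 mM glutamine and allowed one day to adhere.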

[5] = in vitro; type: in vitro ADME, human; details: human liver microsomes, 5 µM test compound, 37 °C, 2 h
How it was run: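 HLM diluted to 5 mg/mL in 100 mM KPO4, preincubated 10 min at 37 °C with NADPH-regenerating system. Compound (5 µM final) incubated at 37 °C in triplicate, sampled at 0 and 2 h into ice-cold acetonitrile, then LC-MS analysis.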

[6] = molecular target: human FGF-R1 (Homo sapiens, UniProt P11362, C488A/C584S/L457V); assay: FGF-R spectrophotometric assay; type: biochemical; details: Table 1; compound concentration 1 µM; read-out: FGF-P* (% inhibition)
Protocol: The spectrophotometric assay was carried out as described above for VEGF-R2, except for the following changes in concentration: FGF-R = 50 nM, ATP = 2 mM, and poly(E4Y1) =15 mM.

[7] = test system: VEGF dependent retinal vascular development; assay: In vivo assay of retinal vascular development in neonatal rats; set-up: species or system rat; details: Model P8, intravitreal, vehicle PEG/water 50:50
How it was run: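 Neonatal rats given compound by intravitreal injection, vehicle usually 50% PEG 400/50% 300 mM sucrose, with vehicle in contralateral eye. Retinas removed six days later, ADPase-stained and flat-mounted; stained vessel area quantified by imaging and expressed as percent regression versus vehicle eye.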

[8] = test system: VEGF dependent retinal neovascularization; assay: Neonatal rat model of retinopathy of prematurity; type: in vivo; details: Model ROP, intravitreal, 10 mg/ml, vehicle PEG/water 70:30
[9] = molecular target: phosphorylated VEGF-R2Δ50 (Homo sapiens, UniProt P35968, DEL940-989/E990V); assay: biochemical; details: read-out: FLVK -P** (% inhibition)
phosphorylated VEGF-R2Δ50, sequence (P35968 with tags, fused parts or gaps DEL940-989/E990V limits assumed): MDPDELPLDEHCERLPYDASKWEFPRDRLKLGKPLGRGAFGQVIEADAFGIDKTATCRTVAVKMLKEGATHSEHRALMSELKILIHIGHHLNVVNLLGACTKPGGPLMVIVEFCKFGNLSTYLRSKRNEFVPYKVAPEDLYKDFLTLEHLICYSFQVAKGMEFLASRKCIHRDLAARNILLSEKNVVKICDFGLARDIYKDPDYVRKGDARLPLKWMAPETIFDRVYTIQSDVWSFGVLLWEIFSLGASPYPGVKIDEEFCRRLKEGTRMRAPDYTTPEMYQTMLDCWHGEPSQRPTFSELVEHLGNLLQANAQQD

human FGF-R1, sequence (P11362 456-766 L457V/C488A/C584S): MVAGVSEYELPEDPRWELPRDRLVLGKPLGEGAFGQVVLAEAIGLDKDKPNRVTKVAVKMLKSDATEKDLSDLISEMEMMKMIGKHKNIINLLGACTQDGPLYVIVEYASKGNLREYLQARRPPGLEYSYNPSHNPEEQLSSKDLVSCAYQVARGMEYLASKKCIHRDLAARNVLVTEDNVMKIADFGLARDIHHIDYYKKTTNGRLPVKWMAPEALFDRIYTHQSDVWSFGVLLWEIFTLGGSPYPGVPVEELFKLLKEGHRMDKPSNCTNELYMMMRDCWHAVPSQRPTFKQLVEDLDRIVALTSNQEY
unphosphorylated VEGF-R2Δ50, sequence (P35968 with tags, fused parts or gaps DEL940-989/E990V limits assumed): as the sequence (P35968 with tags, fused parts or gaps DEL940-989/E990V limits assumed) above

Row | SMILES | inhibition at 0.05 µM [1] | IC50 [4] | % remain (HLM, 2 h) [5] | inhibition at 1 µM [6] | other results
1 | CCn1nc(C)cc1C(=O)Nc1cccc(Oc2ccc3c(/C=C/c4ccccn4)n[nH]c3c2)c1 [Reference Example 31(d), 6-[3-((1-Ethyl-3-methyl-1H-pyrazol-5-yl)carboxamido)phenoxy]-3-E-[2-(pridin-2-yl)ethenyl]-1H-indazole] | 96% | 5.2 µM | 110% | – | T1/2 ([2]; IP, 25 mg/kg): 5.3 h; T1/2 ([2]; PO, 10 mg/kg): 3.1 h; T1/2 ([2]; PO, 25 mg/kg): 1.9 h; T1/2 ([2]; PO, 50 mg/kg): 39.3 h; AUC ([3]; ip, 25 mg/kg): 238 µg·h/mL; AUC ([3]; po, 10 mg/kg): 49.1 µg·h/mL; AUC ([3]; po, 25 mg/kg): 204 µg·h/mL; AUC ([3]; po, 50 mg/kg): 431 µg·h/mL
2 | C#CCNC(=O)c1ccccc1Sc1ccc2c(/C=C/c3ccccn3)n[nH]c2c1 [Reference Example 35(cc), 6-[2-(2-Propynylcarbamoyl)phenylsulfany]-3-E-[2-(pyridin-2-yl)ethenyl]-1H-indazole] | 89% | – | 31% | 74% | –
3 | CCONC(=O)c1ccccc1Sc1ccc2c(/C=C/c3ccccn3)n[nH]c2c1 [Reference Example 35(dd), 6-[2-(ethoxycarbamoyl)phenylsufanyl]-3-E-[2-(pyridin-2-yl)ethenyl]-1H-indazole] | – | – | 26% | – | Initial Evaluation ([7]; 5 mg/ml): ++/+++ var
4 | CC(C)ONC(=O)c1ccccc1Sc1ccc2c(/C=C/c3ccccn3)n[nH]c2c1 [Reference Example 35(k)] | 85% | – | 14% | 34% | –
5 | O=C(NNc1ccccn1)c1ccccc1Sc1ccc2c(/C=C/c3ccccn3)n[nH]c2c1 [Reference Example 35(n), 6-[2-(N^2-(pyrid-2-ylhydrazino)carbonyl)phenylsulfanyl]-3-E-[2-(pyridin-2-yl)ethenyl]-1H-indazole] | – | 5.1 µM | 47% | – | –
6 | CCn1nc(C)cc1C(=O)Nc1cccc(C(=O)c2ccc3c(/C=C/c4ccccn4)n[nH]c3c2)c1 [Reference Example 41(a), 6-[3-((1-Ethyl-3-methyl-1H-pyrazol-5-yl)carboxamido)benzoyl]. 3-E-[2-(pyridin-2-yl)ethenyl]-1H-indazole] | – | – | 96% | – | % Inhibition ([7]; 0.5 mg/ml): 0%; % Inhibition [8]: 64%; Initial Evaluation [8]: +++ (three pluses give to retinas with near total regression (approximately 75% or greater)); inhibition at 0.05 µM [9]: 94%
7 | CCn1nc(C)cc1C(=O)Nc1cc(C(=O)c2ccc3c(/C=C/c4ccccn4)n[nH]c3c2)ccc1C [Reference Example 41(ee), 6-[3-((1-Ethyl-3-methyl-1H-pyrazol-5-yl)carboxamido)-4-methylbenzoyl]-3-E-[2-(pyridin-2-yl)ethenyl]-1H-indazole] | – | 9.4 µM | 47% | 94% | –
8 | CCCn1nc(C)cc1C(=O)Nc1cccc(C(=O)c2ccc3c(/C=C/c4ccccn4)n[nH]c3c2)c1 [Reference Example 41(r)] | 100% | – | 83% | 92% | –
